Article PMC6637749 (Journal of medicinal chemistry, 2018)

Key:
[1] = system: panel of melanoma cell lines (A375, M14, RPMI7951); assay: Antiproliferative activity, panel of melanoma cell lines; assay type: cell-based, human; conditions: for IC50: Homo sapiens, 72 h, read-out: IC50 values, range over the melanoma cell lines
Bovine brain tubulin = Bovine brain tubulin (Bos taurus, UniProt P81947+Q6B856); assay: Tubulin polymerization assay; assay type: biochemical; conditions: 10 μM compound, absorbance at 340 nm, 37 °C; vehicle control Vmax = 27
A375 melanoma xenograft = assay type: in vivo; conditions: doses up to 30 mg/kg i.p., nude mice
[2] = system: docetaxel-resistant DU145/TxR prostate cancer cell line; assay: Cytotoxicity; assay type: cell-based; conditions: at concentrations up to 1 μM

Bovine brain tubulin, sequence (Q6B856 whole entry): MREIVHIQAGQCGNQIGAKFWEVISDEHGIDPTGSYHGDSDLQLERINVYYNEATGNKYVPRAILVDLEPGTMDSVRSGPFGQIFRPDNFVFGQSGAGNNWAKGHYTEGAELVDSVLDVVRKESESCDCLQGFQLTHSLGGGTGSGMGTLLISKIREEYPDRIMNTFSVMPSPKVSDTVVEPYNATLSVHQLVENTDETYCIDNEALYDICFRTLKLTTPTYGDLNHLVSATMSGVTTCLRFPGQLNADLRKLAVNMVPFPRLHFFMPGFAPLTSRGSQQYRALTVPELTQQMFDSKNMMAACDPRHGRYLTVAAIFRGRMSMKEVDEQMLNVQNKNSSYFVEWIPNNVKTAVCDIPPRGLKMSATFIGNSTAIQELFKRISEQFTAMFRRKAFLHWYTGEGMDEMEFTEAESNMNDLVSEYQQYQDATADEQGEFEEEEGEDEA
Bovine brain tubulin, sequence (P81947 whole entry): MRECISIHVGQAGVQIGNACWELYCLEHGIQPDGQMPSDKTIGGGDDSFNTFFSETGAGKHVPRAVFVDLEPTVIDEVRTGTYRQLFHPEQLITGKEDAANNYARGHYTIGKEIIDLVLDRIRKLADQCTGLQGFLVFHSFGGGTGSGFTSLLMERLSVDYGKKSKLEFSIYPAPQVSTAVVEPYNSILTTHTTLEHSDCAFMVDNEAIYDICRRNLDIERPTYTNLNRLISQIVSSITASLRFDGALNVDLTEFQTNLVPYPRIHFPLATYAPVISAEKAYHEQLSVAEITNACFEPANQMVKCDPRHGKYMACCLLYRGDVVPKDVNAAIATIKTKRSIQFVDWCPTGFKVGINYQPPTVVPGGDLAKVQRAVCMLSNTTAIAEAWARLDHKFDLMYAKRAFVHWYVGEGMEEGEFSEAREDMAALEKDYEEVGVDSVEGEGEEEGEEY

SMILES	IC50 [1] [nM]	other results
COc1cc(C(=O)c2c[nH]c(-c3c[nH]c4ccccc34)n2)cc2c1OC=CO2 [13f, (2-(1H-Indol-3-yl)-1H-imidazol-5-yl)(8-methoxybenzo[b][1,4]-diOXin-6-yl)methanone]	1.1 to 3.3	tubulin polymerization Vmax (Bovine brain tubulin): 0; apparent toxicity (mouse weights and activities) (A375 melanoma xenograft): without causing apparent toxicity
O=C(c1ccc2c(c1)OCCO2)c1c[nH]c(-c2c[nH]c3ccccc23)n1 [13a, (2-(1H-Indol-3-yl)-1H-imidazol-5-yl)(2,3-dihydrobenzo[b][1,4]-dioxin-6-yl)methanone]	119 to 218	
CC(=O)O[C@H]1C(=O)[C@@]2(C)[C@H]([C@H](OC(=O)c3ccccc3)[C@]3(O)C[C@H](OC(=O)[C@H](O)[C@@H](NC(=O)c4ccccc4)c4ccccc4)C(C)=C1C3(C)C)[C@]1(OC(C)=O)CO[C@@H]1C[C@@H]2O [paclitaxel]		effect in DU145/TxR cells [2]: no effect was observed at all
COc1cc(C(=O)c2c[nH]c(-c3c[nH]c4cccc(C)c34)n2)cc2c1OC=CO2 [compound 25, (8-Methoxybenzo[b][1,4]dioxin-6-yl) (2-(4-methyl-1H-indol-3-yl)-1H-imidazol-5-yl)methanone]	6.1 to 8.8	
COc1cc(C(=O)c2c[nH]c(-c3cccc4[nH]ccc34)n2)cc2c1OC=CO2 [compound 19, (2-(1H-Indol-4-yl)-1H-imidazol-5-yl)(8-methoxybenzo[b][1,4]-diOXin-6-yl)methanone]		fold reduced antiproliferative activity compared to 13f ([1]; compared with 13f): ~ 11 fold

Second part, led by results:

IC50 [1] [nM]	SMILES	other results
3.5 to 5.6	COc1cc(C(=O)c2c[nH]c(-c3c[nH]c4ccccc34)n2)cc2c1OCO2 [13d, (2-(1H-Indol-3-yl)-1H-imidazol-5-yl)(7-methoxybenzo[d][1,3]-dioxol-5-yl)methanone]	fold more active than 13b ([1]; antiproliferative IC50 compared with 13b): 30 fold; fold more potent than 13c ([1]; antiproliferative IC50 compared with 13c): ~ 4 fold
32.2 to 47.7	COc1cc(C(=O)c2c[nH]c(-c3c[nH]c4ccccc34)n2)cc2c1OCCCO2 [13e, (2-(1H-Indol-3-yl)-1H-imidazol-5-yl)(9-methoxy-3,4-dihydro-2H-benzo[b][1,4]dioxepin-7-yl)methanone]	
11.3 to 29.2	COc1cc(C(=O)c2c[nH]c(-c3c[nH]c4ccccc34)n2)cc2c1OCCO2 [13c, (2-(1H-Indol-3-yl)-1H-imidazol-5-yl)(8-methoxy-2,3-dihydrobenzo[b][1,4]dioxin-6-yl)methanone]	
